Blank lines part the entries; values can stand above or below the compound they belong to.
Columns and labels:
[1] = tested on: human prostate cancer cells (PC3); assay: MTT dye reduction viability test, PC3; type: cell-based; details: for IC50 / viability at 10 µM / viability at 20 µM / viability at 40 µM / viability at 60 µM / viability at 80 µM / viability at 100 µM: Homo sapiens; for IC50: 72 h exposure, MTT, mean ± SD, read-out: Cytotoxic activity IC50, PC3; for viability at 10 µM: PC3, 10 µM; for viability at 10 µM / viability at 20 µM / viability at 40 µM / viability at 60 µM / viability at 80 µM / viability at 100 µM: representative MTT result (Table S1 A); for viability at 20 µM: PC3, 20 µM; for viability at 40 µM: PC3, 40 µM; for viability at 60 µM: PC3, 60 µM; for viability at 80 µM: PC3, 80 µM; for viability at 100 µM: PC3, 100 µM, read-out: Cells viability
Method: (§1) We have chosen two types of cell culture lines: human prostate cancer cells (PC3) and normal human immortal keratinocyte cells (HaCaT) (Table 1).
(§2) Human prostate cancer cells (PC3) and human immortal keratinocyte cell line from adult human skin (HaCaT) were obtained from American Type Culture Collection (Teddington, UK) and cultured according to its instructions RPMI 1640 (L0490) medium or DMEM (L0102) medium, respectively, in a 95% air and 5% CO2 humidified incubator at 37 °C. Both media (Biowest) were supplemented with 10% fetal bovine serum (FBS), 100 U/mL penicillin and 100 μg/mL streptomycin. 10 mM stock solutions of tested compounds in DMSO were prepared.
(§3) To assess the cells growth inhibition, the MTT dye reduction test was preformed based on the method described by Präbst et al.. Both PC3 and HaCaT cells (1 × 10^3/well) were seeded into 96-well plates and incubated for 24 h to attach to the bottom of the well in appropriate medium (200 μL) and treated with tested compounds (0–100 μM). The medium with compounds was removed after 72 h and MTT (0.5 mg/mL) in fresh growth medium without serum was added to each well. The plates were incubated in dark for 4 h at 37 °C. Then, the solution in each well was removed and refilled with 100 μL DMSO: isopropanol (1:1) to dissolve formazon crystals. The optical density was measured with an UVM 340 (ASYS Hitech GmbH, Austria) microplate reader at 570 nm. Replicates of three wells for each dosage, including vehicle control, were analyzed for each experiment. The experiments were conducted in triplicate. The results are expressed as IC50 values. The value of IC50 was estimated using CompuSyn version 1.0.

[2] = MTT dye reduction viability test, HaCaT; type: cell-based, human; details: human; for IC50 at 72 h / viability at 72 h, 10 µM / viability at 72 h, 20 µM / viability at 72 h, 40 µM / viability at 72 h, 60 µM / viability at 72 h, 80 µM / viability at 72 h, 100 µM: HaCaT cells (immortal keratinocytes)
Method: as §1, §2, §3

[3] = tested on: human immortal keratinocyte cells (HaCaT); assay: MTT dye reduction viability test, HaCaT; type: cell-based; details: for IC50: 72 h exposure, MTT, mean ± SD, read-out: Cytotoxic activity IC50, HaCaT
Method: as §1, §2, §3

rat brain homogenate = assay: Lipid peroxidation (MDA/TBA) induced by FeCl2 and ascorbic acid; type: biochemical; details: 10 µM compound; for MDA concentration: oxidation by 0.1% FeCl2 and 1 mM ascorbic acid, 1 h 37 °C, control 9.644 ± 1.570
Method: The antioxidant potential of the new flavone derivatives was assessed based on the analysis of malondialdehyde concentration formed as a product of lipid oxidation stimulated by iron (II) ions.
After preparation, the brain was placed on an ice plate and washed with cold 0.9% NaCl. 10% (m/v) brain solution was obtained by homogenization in cold 10 mM TRIS-HCl buffer, pH = 7.5. The homogenate was centrifuged (2000 rpm, 10 min, 4 °C) to obtain supernatant 1 (S1).
100 µM stock solutions of test compounds in DMSO were prepared. The test compound solution was added to a […] S1 homogenate to a final concentration of 10 µM.
The oxidation reaction was induced by adding to the samples with or without the test compounds freshly prepared solutions: 0.1% FeCl2 (0.2 mL) and 1 mM ascorbic acid (0.4 mL). After incubation for 1 h at 37 °C, the reaction was stopped by adding 8.1% sodium dodecyl sulfate (SDS) solution. In order to determine the concentration of MDA, the acetic acid/HCl buffer at pH = 3.4 and 120 μL of 0.8% thiobarbituric acid (TBA) solution at pH = 6 were added to the samples. The samples were incubated for 1 h at 100 °C. After incubation, the samples were cooled on ice and centrifuged for 10 min at 4000 RPM. The absorbance was measured at a wavelength of 532 nm. Blank content: 0.5 mL of acetate buffer + 0.5 mL of TBA solution.
Calculation of malondialdehyde (MDA) concentration (Equation (1)):(1) MDA concentration=∆ A532 nm × 1.56 ×10^−6 [nmol MDA/h/g tissue]

[4] = 72 h exposure, MTT, mean ± SD, read-out: Cytotoxic activity IC50, HaCaT
[5] = HaCaT, 10 µM, 72 h, representative MTT result (Table S1 B)
[6] = HaCaT, 20 µM, 72 h, representative MTT result (Table S1 B)
[7] = HaCaT, 40 µM, 72 h, representative MTT result (Table S1 B)
[8] = HaCaT, 60 µM, 72 h, representative MTT result (Table S1 B)
[9] = HaCaT, 80 µM, 72 h, representative MTT result (Table S1 B)
[10] = HaCaT, 100 µM, 72 h, representative MTT result (Table S1 B), read-out: Cells viability

Compound: CCC=CCC=CCC=CCCCCCCCC(=O)Oc1ccc2c(c1)C(=O)CC(c1ccccc1)O2 (stereo not shown) [6-Linolenic-Flavanone, 6-hydroxy-flavanone linolenic ester]
IC50 [1]: 51.4 ± 2.8 µM
viability at 10 µM ([1]; 72 h): 92.5%
viability at 20 µM ([1]; 72 h): 85.9%
viability at 40 µM ([1]; 72 h): 79.5%
viability at 60 µM ([1]; 72 h): 48%
viability at 80 µM ([1]; 72 h): 35.8%
viability at 100 µM ([1]; 72 h): 31.5%
IC50 at 72 h [2, 4]: 80 ± 4.75 µM
viability at 72 h, 10 µM [2, 5]: 95.8%
viability at 72 h, 20 µM [2, 6]: 75.2%
viability at 72 h, 40 µM [2, 7]: 53.3%
viability at 72 h, 60 µM [2, 8]: 38.1%
viability at 72 h, 80 µM [2, 9]: 25.8%
viability at 72 h, 100 µM [2, 10]: 23.8%
IC50 [3]: 44.6 ± 5.89 µM

melting point: 46.2 to 47.1 °C
Compound: CCCCCCCCC=CCCCCCCCC(=O)Oc1ccc2c(c1)C(=O)CC(c1ccccc1)O2 (stereo not shown) [6-Oleic-Flavanone, 6-hydroxy-flavanone oleic ester]
IC50 [1]: 38.1 ± 3.24 µM
viability at 10 µM ([1]; 72 h): 100%
viability at 20 µM ([1]; 72 h): 70.9%
viability at 40 µM ([1]; 72 h): 41.4%
viability at 60 µM ([1]; 72 h): 19.3%
viability at 80 µM ([1]; 72 h): 13.3%
viability at 100 µM ([1]; 72 h): 6.81%
IC50 at 72 h [2, 4]: 53.3 ± 6.87 µM
viability at 72 h, 10 µM [2, 5]: 97.8%
viability at 72 h, 20 µM [2, 6]: 70%
viability at 72 h, 40 µM [2, 7]: 75.7%
viability at 72 h, 60 µM [2, 8]: 26.4%
viability at 72 h, 80 µM [2, 9]: 26.5%
viability at 72 h, 100 µM [2, 10]: 26.5%
IC50 [3]: 53.3 ± 6.87 µM
MDA concentration (rat brain homogenate): 8.326 ± 0.490 mM × 10^−3

Compound: O=c1cc(-c2ccccc2)oc2cc(O)ccc12 [7-Hydroxy-Flavone, 7-hydroxy-flavone, reference compound]
IC50 [1]: > 100 µM
viability at 10 µM ([1]; 72 h): 123%
viability at 20 µM ([1]; 72 h): 117%
viability at 40 µM ([1]; 72 h): 111%
viability at 60 µM ([1]; 72 h): 95.4%
viability at 80 µM ([1]; 72 h): 65%
viability at 100 µM ([1]; 72 h): 62.7%
reduction of PC3 cells viability compared to control cells ([1]; PC3, 72 h, concentration not given): 38%
IC50 [2, 4]: > 100 µM
viability at 10 µM ([2]; HaCaT, 10 µM, 72 h, representative MTT result (Table S1 B), read-out: Cells viability): 93.8%
viability at 20 µM ([2]; HaCaT, 20 µM, 72 h, representative MTT result (Table S1 B), read-out: Cells viability): 65.8%
viability at 40 µM ([2]; HaCaT, 40 µM, 72 h, representative MTT result (Table S1 B), read-out: Cells viability): 69.7%
viability at 60 µM ([2]; HaCaT, 60 µM, 72 h, representative MTT result (Table S1 B), read-out: Cells viability): 96.2%
viability at 80 µM ([2]; HaCaT, 80 µM, 72 h, representative MTT result (Table S1 B), read-out: Cells viability): 97.2%
viability at 100 µM [2, 10]: 92.4%
cytotoxic activity towards HaCaT cells (in words) ([3]; HaCaT, 0–100 μM, 72 h): did not exhibit cytotoxic activity
MDA concentration (rat brain homogenate): 7.702 ± 1.080 mM × 10^−3
reduction of the level of MDA compared to the control sample (rat brain homogenate; rat brain homogenate): 20.14%

Compound: CCCCCCCCCCCCCCCCCC(=O)Oc1ccc2c(c1)C(=O)CC(c1ccccc1)O2 (stereo not shown) [6-Stearic-Flavanone, 6-hydroxy-flavanone stearic ester]
IC50 [1]: > 100 µM
viability at 10 µM ([1]; 72 h): 96.5%
viability at 20 µM ([1]; 72 h): 106%
viability at 40 µM ([1]; 72 h): 99.6%
viability at 60 µM ([1]; 72 h): 93.9%
viability at 80 µM ([1]; 72 h): 93.6%
viability at 100 µM ([1]; 72 h): 93.7%
cytotoxic potential in PC3 cells (in words) ([1]; PC3, 0–100 μM, 72 h): no cytotoxic potential
IC50 at 72 h [2, 4]: 40.6 ± 4.21 µM
viability at 72 h, 10 µM [2, 5]: 95.4%
viability at 72 h, 20 µM [2, 6]: 82.5%
viability at 72 h, 40 µM [2, 7]: 54.7%
viability at 72 h, 60 µM [2, 8]: 47.8%
viability at 72 h, 80 µM [2, 9]: 32.5%
viability at 72 h, 100 µM [2, 10]: 11.7%
IC50 [3]: 40.6 ± 4.21 µM
MDA concentration (rat brain homogenate): 7.875 ± 0.343 mM × 10^−3

Source: paper PMC8777613, “Effect of Hydroxyl Groups Esterification with Fatty Acids on the Cytotoxicity and Antioxidant Activity of Flavones” (Molecules, 2022)
